Molecules are shown by their SMILES. Where a name gives a salt, the structure may show the parent alone.

In general, IC50 refers to the concentration at which inhibition is half-maximal. The low end stands for greater potency, the high end for weaker potency.

In assay [1] the test system is human small lung cancer cell line H2171. Description: Cell Viability Assay (ATPlite). It is filed as cell-based. Particulars: NCI-H2171, 72 h, H2171 cells, incubated for three days, ATPlite readout. The protocol:
Compounds of the invention were assayed for cell viability using the human small lung cancer cell line H2171 as described in the following protocol. Cells were counted and adjusted to 20,000 cells/mL. Using a Biotek EL406, 50 μL of cells in media were distributed into 384 well white plates from Thermo. Immediately after plating, compound in DMSO was distributed to plates. Compounds were added to plates using a 50 nL 384 well pin transfer manifold on a Janus workstation. Stocks were arrayed in 10 point dose response in DMSO stock in 384 well Greiner compound plates. After the addition of compounds, plates were incubated for three days in a 37° C. incubator. Cell viability was read out using ATPlite from Perkin Elmer. Lyophilized powder was resuspended in lysis buffer and diluted 1:2 with deionized water. 25 μL of this solution was added to each well using the Biotek liquid handler. Plates were incubated for 15 minutes at room temperature before signal was read on an Envision Plate Reader. The data from this assay are summarized in Table 3 below (H2171 activity).
(In general: In ATP-based viability assays light output follows the ATP content of the culture.)

A further assay concerns the target T1, c-Myc/Max/Ebox DNA (Homo sapiens, UniProt P01106).
T1 construct: his6 (cleaved yes)
Description: c-Myc/Max/Ebox DNA AlphaScreen Assay. It is filed as binding. The following applies: free c-Myc 20 nM, his6-Max 5 nM, biotinylated Ebox oligo 10 nM, 2 hour incubation. The protocol:
Compounds of the invention were assayed for c-Myc/Max/EBox activity as described in the following protocol. Human his6-c-Myc and his6-Max were used with biotinylated DNA containing a single Ebox sequence (biotin[…]) purchased from MWG Operon. Free c-Myc was generated from his6-c-Myc through thrombin cleavage of the his6 tag. For 384-well plate assays, 10 μL of a 2× solution of free c-Myc (20 nM final), Ni^2+ coated Acceptor Beads (25 μg/ml final), and biotinylated Ebox oligo (10 nM final) were added to 384-well plates with a Biotek EL406 liquid handler. 50 nL of compounds from stock plates were added by pin transfer using a Janus Workstation (PerkinElmer), allowing the compounds to interact with c-Myc prior to c-Myc binding with Max. In the current assay, DMSO was not allowed to exceed 2% v/v of the assay. 10 μl of 2× master mix containing streptavidin-coated donor beads (25 μg/ml final) and his6-Max (5 nM) were added. AlphaScreen measurements were performed on an Envision plate reader (PerkinElmer) utilizing the manufacturer's protocol.
Both master mixes were made in room temperature assay buffer (50 mM HEPES, 150 mM NaCl, 0.2% w/v BSA, 0.02% w/v Tween20, 40 μg/ml glycogen, 500 μM DTT, pH 8.0, wherein both DTT and glycogen were added fresh). Alpha beads were added to respective master solutions. All subsequent steps were performed in low light conditions. Solution 1: 2× solution of components with final concentrations of c-Myc Ni-coated Acceptor Beads (25 μg/ml), and biotinylated Ebox oligo (10 nM). Solution 2: 2× solution of streptavidin-coated donor beads (25 μg/ml final) and his6-Max […]. Solution 1 was added to 384-well plate (AlphaPlate-384, PerkinElmer) with Biotek EL406 liquid handler and the plates were centrifuged very briefly. 50 nL of compounds from stock plates were added by pin transfer using a Janus Workstation. Solution 2 (10 μL) was added with the liquid handler. Plates were sealed with foil to block light exposure and prevent evaporation. Plates were very briefly centrifuged followed by 2 hour incubation. AlphaScreen measurements were performed on an Envision 2104 utilizing the manufacturer's protocol. Excitation was at 680 nm for donor bead release of singlet oxygen and emission was read with a bandpass filter from 520-620 nm. Glycogen: Roche Diagnostics #10901393001. Plate 1536: Perkin Elmer, 6004350. Plate 384: Perkin Elmer, 6005350. Nickel-His Alpha Beads: 6760619R. The data from this assay are summarized in Table 3 below (Myc/Max/DNA Activity).
A general note: In Alpha technology, singlet oxygen from a donor bead excites a nearby acceptor bead.

T1 sequence (P01106 whole entry): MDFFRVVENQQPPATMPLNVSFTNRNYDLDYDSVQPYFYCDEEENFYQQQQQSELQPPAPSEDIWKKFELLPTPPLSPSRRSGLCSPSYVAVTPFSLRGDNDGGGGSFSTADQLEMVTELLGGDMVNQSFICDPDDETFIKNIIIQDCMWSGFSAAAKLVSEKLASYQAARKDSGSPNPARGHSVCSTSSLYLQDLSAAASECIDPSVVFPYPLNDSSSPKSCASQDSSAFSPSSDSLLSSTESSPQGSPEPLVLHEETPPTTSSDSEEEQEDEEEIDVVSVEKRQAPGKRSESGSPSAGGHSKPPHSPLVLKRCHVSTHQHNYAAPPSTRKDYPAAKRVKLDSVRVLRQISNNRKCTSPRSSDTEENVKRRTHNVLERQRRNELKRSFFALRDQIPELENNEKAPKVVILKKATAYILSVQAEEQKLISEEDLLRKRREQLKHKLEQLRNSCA

`COCC(NCCC(=O)Nc1sc2c(c1-c1nc3cnccc3s1)CCNC2)C(C)C` (stereo not shown) [Compound 134]: the IC50 in assay [1] was 500 to 5000 nM; against c-Myc/Max/Ebox DNA, below 500 nM.
Turning to `COCCNCCC(=O)Nc1sc2c(c1-c1nc3cnccc3s1)CCNC2` [Compound 216, 3-((2-methoxyethyl)amino)-N-(3-(thiazolo[4,5-c]pyridin-2-yl)-4,5,6,7-tetrahydrothieno[2,3-c]pyridin-2-yl)propanamide], the IC50 (in assay [1]; on c-Myc/Max/Ebox DNA) was below 500 nM in each case.
As to `CC(=O)Nc1sc2c(c1-c1nc3c(C(F)F)nccc3s1)CCNC2` [Compound 106, N-[3-[4-(difluoromethyl)thiazolo[4,5-c]pyridin-2-yl]-4,5,6,7-tetrahydrothieno[2,3-c]pyridin-2-yl]acetamide], the IC50 (in assay [1]; against c-Myc/Max/Ebox DNA) was below 500 nM throughout.
Turning to `CC(=O)Nc1sc2c(c1-c1nc3cnccc3s1)CCN(C(C)CN1CCOCC1)C2` (stereo not shown) [Compound 105, N-(6-(1-morpholinopropan-2-yl)-3-(thiazolo[4,5-c]pyridin-2-yl)-4,5,6,7-tetrahydrothieno[2,3-c]pyridin-2-yl)acetamide], the IC50 (in assay [1]; at c-Myc/Max/Ebox DNA) was 500 to 5000 nM throughout.
For the compound `CC[C@H](C)NCCC(=O)Nc1sc2c(c1-c1nc3cnccc3s1)CCN[C@H]2C` [Compound 234, 3-(((S)-sec-butyl)amino)-N—((S)-7-methyl-3-(thiazolo[4,5-c]pyridin-2-yl)-4,5,6,7-tetrahydrothieno[2,3-c]pyridin-2-yl)propanamide], the IC50 (in assay [1]; at c-Myc/Max/Ebox DNA) was below 500 nM in each case.
The compound `C[C@@H](NCCC(=O)Nc1sc2c(c1-c1nc3cnccc3s1)CCNC2)c1cnc2ccccn12` [Compound 192] showed an IC50 on c-Myc/Max/Ebox DNA below 500 nM.
In turn, `C[C@H](NCCC(=O)Nc1sc2c(c1-c1nc3cnccc3s1)CCNC2)C1CC1` [Compound 137] showed an IC50 against c-Myc/Max/Ebox DNA below 500 nM.
As for `NC(=O)C1(CNCCC(=O)Nc2sc3c(c2-c2nc4cnccc4s2)CCNC3)CCOCC1` [Compound 202], the IC50 on c-Myc/Max/Ebox DNA was below 500 nM.
For `O=C(CCN1CCC2OCCC2C1)Nc1sc2c(c1-c1nc3cnccc3s1)CCNC2` (stereo not shown) [Compound 208], the IC50 at c-Myc/Max/Ebox DNA is below 500 nM.
On c-Myc/Max/Ebox DNA, `Cc1ncc(CNCCC(=O)Nc2sc3c(c2-c2nc4cnccc4s2)CCNC3)s1` [Compound 186] yielded an IC50 of 500 to 5000 nM.
The compound `O=C(CCN1CC2CCC(C1)O2)Nc1sc2c(c1-c1nc3cnccc3s1)CCNC2` [Compound 163] gave an IC50 against c-Myc/Max/Ebox DNA of 500 to 5000 nM.
Turning to `O=C(CCNC(CO)c1ccc(F)cc1)Nc1sc2c(c1-c1nc3cnccc3s1)CCNC2` (stereo not shown) [Compound 139], the IC50 against c-Myc/Max/Ebox DNA was in the range of 500 to 5000 nM.
In turn, `O=C(CCNCc1noc2c1CNCC2)Nc1sc2c(c1-c1nc3cnccc3s1)CCNC2` [Compound 209] had an IC50 against c-Myc/Max/Ebox DNA of 500 to 5000 nM.
Regarding `CC1(C#N)CN(CCC(=O)Nc2sc3c(c2-c2nc4cnccc4s2)CCNC3)C1` [Compound 196], the half-inhibitory concentration (IC50) at c-Myc/Max/Ebox DNA lay within 500 to 5000 nM.
The same measure, in the same setting: the value for `CC(NCCC(=O)Nc1sc2c(c1-c1nc3cnccc3s1)CCNC2)c1ncc[nH]1` (stereo not shown) [Compound 201] was below 500 nM.
With `O=C(CCN1CC(F)(F)C1)Nc1sc2c(c1-c1nc3cnccc3s1)CCNC2` [Compound 194], the IC50 at c-Myc/Max/Ebox DNA is 500 to 5000 nM.
Take `CC(=O)Nc1sc2c(c1-c1nc3cnccc3s1)CC(C)NC2C` (mixture of isomers) [Compound 109, N-(5,7-dimethyl-3-(thiazolo[4,5-c]pyridin-2-yl)-4,5,6,7-tetrahydrothieno[2,3-c]pyridin-2-yl)acetamide]: on c-Myc/Max/Ebox DNA, the IC50 was 500 to 5000 nM.
Compound `CN(C)[C@H]1CCN(CCC(=O)Nc2sc3c(c2-c2nc4cnccc4s2)CCNC3)C1` [Compound 150] registered an IC50 at c-Myc/Max/Ebox DNA below 500 nM.
Compound `CN1CCN(CCC(=O)Nc2sc3c(c2-c2nc4cnccc4s2)CCNC3)CC1=O` [Compound 162] showed an IC50 against c-Myc/Max/Ebox DNA of 500 to 5000 nM.
For the compound `O=C(CCN1C[C@H]2CN[C@H]2C1)Nc1sc2c(c1-c1nc3cnccc3s1)CCNC2` [Compound 154], the IC50 on c-Myc/Max/Ebox DNA was below 500 nM.
At c-Myc/Max/Ebox DNA, `CC(=O)Nc1sc2c(c1-c1nc3cnccc3s1)CCN(CCN1CCOCC1)C2` [Compound 112] registered an IC50 of 5000 to 25000 nM.
On to `CC(C)C[C@H](CO)NCCC(=O)Nc1sc2c(c1-c1nc3cnccc3s1)CCNC2` [Compound 138], for which the IC50 at c-Myc/Max/Ebox DNA was below 500 nM.
Take `COCC1CCCCN1CCC(=O)Nc1sc2c(c1-c1nc3cnccc3s1)CCNC2` (stereo not shown) [Compound 152]: the IC50 on c-Myc/Max/Ebox DNA was below 500 nM.
Take `CCN1[C@H](C)c2sc(NC(C)=O)c(-c3nc4cnccc4s3)c2C[C@@H]1C` [Compound 253]: the IC50 against c-Myc/Max/Ebox DNA is below 500 nM.
The same measure, in the same setting: the value for `O=C(CCN1CC2CCC2C1)Nc1sc2c(c1-c1nc3cnccc3s1)CCNC2` (stereo not shown) [Compound 130] was below 500 nM; that for `O=C(CCN1CCC2COCC2C1)Nc1sc2c(c1-c1nc3cnccc3s1)CCNC2` (stereo not shown) [Compound 213] was below 500 nM.
Take `O=C(CCNC[C@H]1CC2(CCNCC2)CO1)Nc1sc2c(c1-c1nc3cnccc3s1)CCNC2` [Compound 207]: the IC50 against c-Myc/Max/Ebox DNA was below 500 nM.
In turn, `Cc1nc(C)c(CNCCC(=O)Nc2sc3c(c2-c2nc4cnccc4s2)CCNC3)s1` [Compound 159] displayed an IC50 at c-Myc/Max/Ebox DNA of 500 to 5000 nM.
On to `O=C(CCN1CC2COCC2C1)Nc1sc2c(c1-c1nc3cnccc3s1)CCNC2` (stereo not shown) [Compound 131], for which the IC50 against c-Myc/Max/Ebox DNA was below 500 nM.
As for `CC(NCCC(=O)Nc1sc2c(c1-c1nc3cnccc3s1)CCNC2)c1nc2ccccc2[nH]1` (stereo not shown) [Compound 197], on c-Myc/Max/Ebox DNA, the IC50 was in the range of 5000 to 25000 nM.
In the case of `CC(=O)Nc1sc2c(c1-c1nc3cnccc3s1)CCN(CCN)C2` [Compound 121, N-(6-(2-aminoethyl)-3-(thiazolo[4,5-c]pyridin-2-yl)-4,5,6,7-tetrahydrothieno[2,3-c]pyridin-2-yl)acetamide hydrochloride], the IC50 against c-Myc/Max/Ebox DNA lay within 500 to 5000 nM.
`CC(=O)Nc1sc2c(c1-c1nc3cnccc3s1)C[C@H](C)N[C@@H]2C` [Compound 236] came in with an IC50 in assay [1] below 500 nM.
Consider `O=C(CCN1CCc2[nH]ncc2C1)Nc1sc2c(c1-c1nc3cnccc3s1)CCNC2` [Compound 178], for which, on c-Myc/Max/Ebox DNA, the half-maximal inhibitory concentration (IC50) is below 500 nM.
`COCCNCCC(=O)Nc1sc2c(c1-c1nc3cncnc3s1)CCNC2` [Compound 252] came in with an IC50 on c-Myc/Max/Ebox DNA above 25000 nM.
On c-Myc/Max/Ebox DNA, `O=C(CCNCC1CCOCC1)Nc1sc2c(c1-c1nc3cnccc3s1)CCNC2` [Compound 189] displayed an IC50 below 500 nM.
Compound `O=C(CCNCc1ccn[nH]1)Nc1sc2c(c1-c1nc3cnccc3s1)CCNC2` [Compound 166] registered an IC50 against c-Myc/Max/Ebox DNA below 500 nM.
On c-Myc/Max/Ebox DNA, `O=C(CCNCc1cscn1)Nc1sc2c(c1-c1nc3cnccc3s1)CCNC2` [Compound 160] showed an IC50 below 500 nM.
Still for that read-out and setting: the value for `O=C(CCNC1CCOC1)Nc1sc2c(c1-c1nc3cnccc3s1)CCNC2` (stereo not shown) [Compound 147] was below 500 nM.
On to `O=C(CCNCc1ncon1)Nc1sc2c(c1-c1nc3cnccc3s1)CCNC2` [Compound 181], for which the IC50 against c-Myc/Max/Ebox DNA is below 500 nM.
In the case of `O=C(CCNC1CNCC1O)Nc1sc2c(c1-c1nc3cnccc3s1)CCNC2` (stereo not shown) [Compound 146], the concentration for half-maximal inhibition (IC50) against c-Myc/Max/Ebox DNA was below 500 nM.
On c-Myc/Max/Ebox DNA, `Cc1ccsc1CNCCC(=O)Nc1sc2c(c1-c1nc3cnccc3s1)CCNC2` [Compound 171] yielded an IC50 below 500 nM.
`CC1CC(NCCC(=O)Nc2sc3c(c2-c2nc4cnccc4s2)CCNC3)C1` (stereo not shown) [Compound 133]: the IC50 against c-Myc/Max/Ebox DNA is below 500 nM.
On the same count and under the same terms, the value for `O=C(CCNCc1ccno1)Nc1sc2c(c1-c1nc3cnccc3s1)CCNC2` [Compound 141] was below 500 nM.
Compound `CCN1[C@H](C)Cc2c(sc(NC(C)=O)c2-c2nc3cnccc3s2)[C@@H]1C` [Compound 254] yielded an IC50 on c-Myc/Max/Ebox DNA above 25000 nM.
At c-Myc/Max/Ebox DNA, `NC1CC(NCCC(=O)Nc2sc3c(c2-c2nc4cnccc4s2)CCNC3)C1` (stereo not shown) [Compound 195] had an IC50 below 500 nM.
In the case of `O=C(CCN1CCC2(CCOC2)C1)Nc1sc2c(c1-c1nc3cnccc3s1)CCNC2` (stereo not shown) [Compound 126], the IC50 against c-Myc/Max/Ebox DNA is below 500 nM.
Still for that read-out and setting: for `O=C(CCN[C@H]1COC[C@@H]1O)Nc1sc2c(c1-c1nc3cnccc3s1)CCNC2` [Compound 148] the value was below 500 nM.
